Reference: patent publication US20020114787A1, “Tolerance to natural antibody antigens” (priority 1997, published 2002)

What was measured:
[1] = test system: galactosyl α(1, 3) galactose-reactive natural antibodies in human serum; assay: Competitive ELISA with αGal/BSA or bovine thyroglobulin coated plates; type: binding
Procedure: In order to facilitate the detection of galactosyl α(1, 3) galactose-reactive antibodies in human serum samples, an ELISA system using αGal/BSA as the antigen was used. αGal/BSA (provided by BioTransplant, Inc.) was used to coat 96 well polystyrene plates (Costar) at a concentration of 10 μg/ml in PBS overnight at 4° C. Plates coated with BSA were included to control for background reactivity to BSA. Wells were blocked for 1-2 hours at room temperature with 1% BSA in TBS (100 mM Tris-HCl, pH 7.5, 0.9% NaCl). All plates were washed three times with 0.1% Tween-20 in TBS (TBS/Tween) using a Skatron plate washer (Skatron Instruments, Inc., Sterling, Va.). Serial dilutions of human serum from a single donor were used as the standard positive controls. XNA^− (see Example 3) was used as the negative control. Samples were aliquoted in triplicate and allowed to incubate at room temperature for 1 hour. After washing three times with TBS/Tween, the plates were incubated with alkaline phosphatase conjugated mouse monoclonal anti-human IgG or IgM antibody (Sigma Chemical Co., St. Louis, Mo.) for 1-2 hours at room temperature in the dark. The plates were washed and developed with Sigma 104 alkaline phosphatase substrate tablets in carbonate buffer (0.203 g MgCl2, 2.2 g Na2CO3, 2.43 g. NaHCO3 in 1 L. water). The amount of colored product was measured at 405 nm using the SLT Lab Instruments 340 ATC ELISA reader. For competitive ELISA, bovine thyroglobulin and αGal/BSA were serially diluted ten-fold in TBS to final concentrations of 1 mg/ml to 1 ng/ml. Equal volumes of human serum and competitor were combined and incubated for 1 hour at 4° C. The competition reactions were then aliquoted to antigen coated plates and incubated for 1 hour at room temperature. The plates were washed and incubated with alkaline phosphatase conjugated mouse monoclonal anti-human IgG or IgM antibody (Sigma Chemical Co., St. Louis, Mo.) for 1 hour at room temperature. The wells were washed and developed with Sigma 104 alkaline phosphatase substrate. All samples were analyzed in triplicate.

[2] = test system: human natural antibodies (IgG, IgM) binding to porcine PBMC; assay: Competitive binding assay, flow cytometry: human natural antibody binding to porcine PBMC; settings: human serum pre-incubated with competitor at 1 mg/ml
Procedure: FIG. 1 (Panels A, B, C, D) is a set of graphs which show α1,3Gal/BSA-inhibition of human natural antibody binding to pig cells. Human serum (20 μl) was preincubated with αGal/BSA (Panels A,C) or bovine thyroglobulin (Panels B,D) at concentrations of 1,000 μg/ml (b) or 0.1 μg/ml (c) prior to staining of porcine peripheral blood mononuclear cells (pPBMCs). The negative control (a) consisted of pPBMC plus an equivalent volume of galactosyl α(1, 3) galactose reactive natural antibody-depleted human serum (XNA^−) while the positive control was 20 μl human serum without competitor (d). Following incubation with the human serum, the cells were stained with either anti-human IgG (Panels A,B) or anti-human IgM (Panels C,D).
Human sera were obtained from healthy adult volunteers. Individual samples were isolated and stored at 4° C. for short periods or aliquoted and stored at −70° C. Porcine peripheral blood mononuclear cells (pPBMC) were isolated from heparinized whole blood obtained from an inbred miniature swine herd and resuspended in flow cytometric analysis staining buffer (Hank's Buffered Saline Solution (HBSS), 2.0% fetal calf serum, 0.04% sodium azide (Sigma Chemical Co., St. Louis, Mo.)) to a final concentration of 1×10^7 pPBMC/ml.
Human serum (15 μl) was pre-incubated with serially diluted αGal/BSA, bovine thyroglobulin (Sigma Chemical Co., St. Louis, Mo.) or BSA (Fisher Scientific, Pittsburgh, Pa.) at final concentrations of 1 mg/ml to 1 ng/ml for 90 minutes at 4° C. with gentle rocking. Fifty μl of pPBMC (5×10^5 cells) was incubated with 50 μl of human serum plus competitor for 90 minutes at 4° C. The positive control consisted of staining with human serum alone and the negative control was human serum depleted of natural antibodies (XNA^−). The cells were processed for all subsequent steps in the same way as for direct flow cytometric analysis (DerSimonian, H. M. et al. (1993) J. Exp. Med. 177:1623).

[3] = Stability of αGal/BSA in the ELISA system in the presence of human serum; type: physicochemical; settings: 37° C. for up to 24 hours
Procedure: To ensure that the galactosyl α(1, 3) galactose epitope was stable under these conditions, experiments were performed to determine if there was any detectable hydrolysis of the galactosyl α(1, 3) galactose carbohydrate moiety in the presence of human serum.

[4] = test system: natural antibody function; assay: Pig to cynomolgus kidney transplants; type: in vivo; settings: 6 mg/kg/day, i.v.
Description: As is discussed herein, contacting the recipient's blood with galactosyl (α1, 3) galactose epitopes can be used to deplete the host of natural antibodies. Other methods for depleting or otherwise inactivating natural antibodies can be used with any of the methods described herein. For example, drugs which inactivate natural antibodies, e.g., deoxyspergualin (DSG) (Bristol), or anti-IgM antibodies, can be administered to the recipient of an allograft or a xenograft. One or more of, DSG (or similar drugs), anti-IgM antibodies, and hemoperfusion, can be used to inactivate recipient natural antibodies in methods of the invention.

| Compound | concentration necessary to block binding of αGal-reactive natural antibodies to αGal/BSA ([1]; competitive ELISA, αGal/BSA as antigen) | inhibition of binding of serum natural antibodies to αGal/BSA ([1]; pre-incubation of serum with competitor) | decrease in IgG binding to pig cells (median fluorescence intensity) [2] [%] | reduction of IgM binding to pig cells (median fluorescence intensity) [2] [%] | concentration that completely inhibited binding of human IgG and IgM to bovine thyroglobulin ([1]; competitive ELISA, bovine thyroglobulin as antigen) [µg/mL] | stability (hydrolysis of the galactosyl α(1, 3) galactose moiety) in the ELISA system [3] | suppression of natural antibody function [4] |
| --- | --- | --- | --- | --- | --- | --- | --- |
| Bovine thyroglobulin: galactosyl α(1, 3) galactose containing molecule, estimated eleven naturally occurring residues, 300 kD (Sigma) | 100-1,000 μg/ml | completely inhibited | 79 | 66 |  |  |  |
| αGal/BSA: synthetic conjugate with fifteen to thirty-nine αGal moieties per BSA molecule, 70 kD |  |  | 84 | 94 | 1 | stable |  |
| N=C(N)NCCCCCCC(=O)NC(O)C(=O)NCCCCNCCCN (stereo not drawn) [DSG, deoxyspergualin] |  |  |  |  |  |  | useful in suppressing natural antibody function |
